The source of these data is patent US11299496B2, “Ligands for alpha-7 nicotinic acetylcholine receptors and methods of treating neurological and inflammatory conditions” (Northeastern University, priority 2014, dated 2022).

The assay deals with T1, human alpha-7 nAChR (Homo sapiens, UniProt P36544).
T1 construct: expressed in transfected cells; host or cells: Xenopus laevis oocytes (cRNA injection)
In words: Two-electrode voltage clamp of alpha-7 nAChR expressed in Xenopus oocytes (net charge). In kind it is cell-based. To be noted: for Charge Alone: compound alone acting as an allosteric agonist; for Charge Alone / Charge +C: area under the curve of current vs. time; for Charge +C: compound together with choline or ACh, includes PAM and ago-PAM activity. The method, then:
The human alpha-7 nAChR receptor clone was obtained from Dr. Jon Lindstrom {University of Pennsylvania, Philadelphia, Pa.), aid the RIC-3 clone from Dr. Millet Treinin (Hebrew University, Jerusalem, Israel) for the purpose of co-injection with a7 to improve the level and speed of receptor expression (Halevi et al., 2003). After linearization and purification of cloned cDNA's, RNA, transcripts were prepared rising the appropriate mMessage mMachine kit tiom Ambion (Austin, Tex.).
Expression in X, laeivis Oocytes
Oocytes were obtained from mature (>9 cm) female Xenopus laeivis African frogs (Nasco, Ft. Atkinson, Wis.). Frogs were anesthetized in 0.7 g/L solution of ethyl 3-aminobenzoate methanesulfonate buffered with sodium bicarbonate, and oocytes were surgically removed through an abdominal incision. Harvested oocytes were treated with 1.25 mg/ml collagenase (Worthington Biochemicals, Freehold, N.J.) in calcium-free Barth's solution (88 mM NaCl, 1 mM KCl, 2.38 mM NaHCO3, 0.82 mM MgSO4, 15 mM HEPES, 12 mg/L tetracycline, pH 7.6) for 3-4 hours to remove the follicular layer. Stage-5 oocytes were isolated and injected with 50 nL (5-20 ng) of human alpha-7 and RIC-3 cRNA. Suitable levels of receptor expression were typically achieved 2-6 days after injection of cRNA. For experiments involving the PAM 4BP-TQS/GAT-107, where standard levels of expression result in ion currents too large to be recorded in voltage clamp, experiments were typically conducted 1-3 days after RNA injection.
Two-electrode voltage clamp experiments were conducted using OpusXpress6000A (Molecular Devices, Sunnyvale, Calif.), an integrated system that provides automated impalement and voltage clamp of up to eight oocytes in parallel. Both the current and voltage electrodes were filled with 3 M KCl, and oocytes were clamped at a holding potential of −60 mV. Data were collected at 50 Hz and filtered at 20 Hz. The oocytes were bath-perfused with Ringer's solution (115 mM NaCl, 10 mM HEPES, 2.5 mM KCl, 1.8 mM CaCl2, pH 7.3), and agonist solutions were delivered from a 96-well drug plate using disposable tips. Flow rates were set at 2 mL/min, with each drug or control solution delivered in 12 s durations, followed˜by 181 s washouts with Ringer's unless noted otherwise.
Experimental Protocols and Data Analysis
Responses of human alpha-7 receptors to agonists were measured as both peek current and net charge measured over a 120 s period beginning with the compound application (Papke and Papke, 2002). […] In experiments involving positive allosteric modulators (PAMs), the fast desensitization of alpha-7 was eliminated, allowing peak currents to be used as a valid measurement of the receptor-mediated responses (Wang et al., 2012; Williams et al., 2011).
Oocytes received two control ACh applications prior to receiving any drug in order to establish a steady reference response, and they received one or more control ACh applications at the end of all experiments. For experiments involving drug incubation through bath applications, all responses were normalized to the average of two ACh control responses taken immediately prior to the switch of bath solution, for each cell individually. These normalization procedures had the effect of compensating for differing levels of receptor expression among the multiple oocytes used in each experiment. Each experiment was conducted on at least four oocytes, with mean values and standard errors (S.E.M.) calculated from their normalized responses. […]
On the technique in general: Two-electrode voltage clamp is typically applied to oocytes expressing channels or transporters.

T1 sequence (P36544 23-502): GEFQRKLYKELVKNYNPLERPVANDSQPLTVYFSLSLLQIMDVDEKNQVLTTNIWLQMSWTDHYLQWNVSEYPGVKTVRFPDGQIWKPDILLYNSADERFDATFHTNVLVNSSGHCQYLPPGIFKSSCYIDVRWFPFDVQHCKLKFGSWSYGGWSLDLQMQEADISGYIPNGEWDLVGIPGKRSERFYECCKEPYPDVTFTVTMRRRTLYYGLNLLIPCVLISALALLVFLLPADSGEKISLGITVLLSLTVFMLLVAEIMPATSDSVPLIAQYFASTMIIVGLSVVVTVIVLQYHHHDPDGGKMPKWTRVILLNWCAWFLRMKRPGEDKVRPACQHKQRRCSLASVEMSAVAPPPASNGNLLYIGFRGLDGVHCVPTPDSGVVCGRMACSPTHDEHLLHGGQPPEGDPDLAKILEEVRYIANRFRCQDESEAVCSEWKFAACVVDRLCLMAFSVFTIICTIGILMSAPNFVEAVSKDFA

In the case of `[N-]=[N+]=Nc1ccc([C@H]2Nc3ccc(S(N)(=O)=O)cc3[C@H]3C=CC[C@H]32)cc1` [Compound 48, (3aR,4S,9bS)-4-(4-azidophenyl)-3a,4,5,9b-tetrahydro-3H-cyclopenta[c]quinoline-8-sulfonamide], the “Charge Alone” value amounted to 61 and the “Charge +C” value was determined as 764.
With `N#Cc1ccc([C@H]2Nc3ccc(S(N)(=O)=O)cc3[C@H]3C=CC[C@H]32)s1` [Compound 34, 4-(5-cyanothiophen-2-yl)-3a,4,5,9b-tetrahydro-3H-cyclopenta[c]quinoline-8-sulfonamide], the “Charge Alone” value is “Insoluble” and the “Charge +C” value was “Insoluble”.
On to `NS(=O)(=O)c1ccc2c(c1)C1C=CCC1C(c1ccc(C(=O)O)cc1)N2` (centres unmarked) [Compound 58, 4-(8-sulfamoyl-3a,4,5,9b-tetrahydro-3H-cyclopenta[c]quinolin-4-yl)benzoic acid], for which the “Charge Alone” value is listed as “Inactive” and the “Charge +C” value is listed as “Inactive”.
In the case of `CC(C)(C)COC(=O)c1ccc([C@H]2Nc3ccc(S(N)(=O)=O)cc3[C@H]3C=CC[C@H]32)cc1` (stereo in doubt) [Compound 70, neopentyl4-(8-sulfamoyl-3a,4,5,9b-tetrahydro-3H-cyclopenta[c]quinolin-4-yl)benzoate], the “Charge Alone” value is recorded as 52 and the “Charge +C” value is listed as 487.
Take `NS(=O)(=O)c1ccc2c(c1)[C@H]1C=CC[C@H]1[C@@H](c1csc3ccccc13)N2` (stereo in doubt) [Compound 39, 4-(benzo[b]thiophen-3-yl)-3a,4,5,9b-tetrahydro-3H-cyclopenta[c]quinoline-8-sulfonamide]: the “Charge Alone” value was 22 and the “Charge +C” value is reported as 145.
For `NS(=O)(=O)c1ccc2c(c1)[C@H]1C=CC[C@H]1[C@@H](c1ccc(NC(=O)OC3CCCCC3)cc1)N2` (stereo in doubt) [Compound 61, cyclohexyl(4-(8-sulfamoyl-3a,4,5,9b-tetrahydro-3H-cyclopenta[c]quinolin-4-yl)phenyl)carbamate], the “Charge +C” value was found to be 85.
On to `CC(C)(C)CC(=O)Oc1ccc([C@H]2Nc3ccc(S(N)(=O)=O)cc3[C@H]3C=CC[C@H]32)cc1` (stereo in doubt) [Compound 69, 4-(8-sulfamoyl-3a,4,5,9b-tetrahydro-3H-cyclopenta[c]quinolin-4-yl)phenyl 3,3-dimethylbutanoate], for which the “Charge Alone” value amounted to 25 and the “Charge +C” value is reported as 582.
The matching figures for `CCCNS(=O)(=O)c1ccc2c(c1)[C@H]1C=CC[C@H]1[C@@H](c1ccc(Br)cc1)N2` (stereo in doubt) [Compound 107, 4-(4-bromophenyl)-N-propyl-3a,4,5,9b-tetrahydro-3H-cyclopenta[c]quinoline-8-sulfonamide]: “Inactive” and “Inactive”.
For the compound `NS(=O)(=O)c1ccc2c(c1)[C@H]1C=CC[C@H]1[C@@H](c1cccnc1)N2` [Compound 51, 4-(pyridin-3-yl)-3a,4,5,9b-tetrahydro-3H-cyclopenta[c]quinoline-8-sulfonamide], the “Charge +C” value is recorded as 10.
Take `CN(C)S(=O)(=O)c1ccc2c(c1)[C@H]1C=CC[C@H]1[C@@H](c1ccc(Br)cc1)N2` (stereo in doubt) [Compound 21, 4-(4-bromophenyl)-N,N-dimethyl-3a,4,5,9b-tetrahydro-3H-cyclopenta[c]quinoline-8-sulfonamide]: the “Charge Alone” value is on record as “Inactive” and the “Charge +C” value is recorded as “Inactive”.
Consider `NS(=O)(=O)c1ccc2c(c1)[C@H]1C=CC[C@H]1[C@@H](c1ccc(Br)c3ccccc13)N2` (stereo in doubt) [Compound 53, 4-(4-bromonaphthalen-1-yl)-3a,4,5,9b-tetrahydro-3H-cyclopenta[c]quinoline-8-sulfonamide], for which the “Charge +C” value was determined as 76.
Regarding `CC(=O)c1ccc2c(c1)[C@H]1C=CC[C@H]1[C@@H](c1cc3c(cc1Br)OCO3)N2` [Compound 30], the “Charge Alone” value was “Inactive” and the “Charge +C” value is “Inactive”.
For the compound `NS(=O)(=O)c1ccc2c(c1)[C@H]1C=CC[C@H]1[C@@H](c1ccc(I)cc1)N2` [Compound 46, (3aR,4S,9bS)-4-(4-iodophenyl)-3a,4,5,9b-tetrahydro-3H-cyclopenta[c]quinoline-8-sulfonamide], the “Charge Alone” value was found to be 242 and the “Charge +C” value stood at 684.
Take `Nc1ccc([C@H]2Nc3ccc(S(N)(=O)=O)cc3[C@H]3C=CC[C@H]32)cc1` (stereo in doubt) [Compound 18, 4-(4-aminophenyl)-3a,4,5,9b-tetrahydro-3H-cyclopenta[c]quinoline-8-sulfonamide]: the “Charge +C” value was determined as 250.
Turning to `NS(=O)(=O)c1ccc2c(c1)[C@@H]1C=CC[C@@H]1[C@H](c1ccc(I)cc1)N2` [Compound 45, (3aS,4R,9bR)-4-(4-iodophenyl)-3a,4,5,9b-tetrahydro-3H-cyclopenta[c]quinoline-8-sulfonamide], the “Charge Alone” value is listed as “Inactive” and the “Charge +C” value was “Inactive”.
With `N#Cc1ccc([C@@H]2Nc3ccc(S(N)(=O)=O)cc3[C@H]3C=CC[C@H]32)cc1` (stereo in doubt) [Compound 6, 4-(4-cyanophenyl)-3a,4,5,9b-tetrahydro-3H-cyclopenta[c]quinoline-8-sulfonamide], the “Charge Alone” value is “Inactive” and the “Charge +C” value is “Inactive”.
Turning to `NS(=O)(=O)c1ccc2c(c1)[C@H]1C=CC[C@H]1[C@@H](c1cccs1)N2` (stereo in doubt) [Compound 17, 4-(thiophen-2-yl)-3a,4,5,9b-tetrahydro-3H-cyclopenta[c]quinoline-8-sulfonamide], the “Charge Alone” value is given as 0.031 and the “Charge +C” value is 21.096.
As to `CC(C)(C)CCCc1ccc([C@H]2Nc3ccc(S(N)(=O)=O)cc3[C@H]3C=CC[C@H]32)cc1` (stereo in doubt) [Compound 66, 4-(4-(4,4-dimethylpentyl)phenyl)-3a,4,5,9b-tetrahydro-3H-cyclopenta[c]quinoline-8-sulfonamide], the “Charge Alone” value is given as 330 and the “Charge +C” value is listed as 1240.
For the compound `NS(=O)(=O)c1ccc2c(c1)[C@H]1C=CC[C@H]1[C@@H](c1scc(Br)c1Br)N2` (stereo in doubt) [Compound 38, 4-(3,4-dibromothiophen-2-yl)-3a,4,5,9b-tetrahydro-3H-cyclopenta[c]quinoline-8-sulfonamide], the “Charge Alone” value worked out at 18 and the “Charge +C” value is 1246.
In the case of `NS(=O)(=O)c1ccc2c(c1)[C@H]1C=CC[C@H]1[C@@H](c1ccc(NC(=O)OC34CC5CC(CC(C5)C3)C4)cc1)N2` (stereo in doubt) [Compound 62, adamantan-1-yl (4-(8-sulfamoyl-3a,4,5,9b-tetrahydro-3H-cyclopenta[c]quinolin-4-yl)phenyl)carbamate], the “Charge +C” value was 35.
Turning to `NS(=O)(=O)c1ccc2c(c1)[C@H]1C=CC[C@H]1[C@@H](c1ccc(OCc3ccccc3)cc1)N2` [Compound 50, (3aR,4S,9bS)-4-(4-(benzyloxy)phenyl)-3a,4,5,9b-tetrahydro-3H-cyclopenta[c]quinoline-8-sulfonamide], the “Charge Alone” value was 20 and the “Charge +C” value came to 67. Besides, the “'ago' component / ago-PAM activity” value (in words) is listed as “moderate ago-PAM activity”.
As for `[N-]=[N+]=Nc1ccc([C@@H]2Nc3ccc(S(N)(=O)=O)cc3[C@@H]3C=CC[C@@H]32)cc1` [Compound 47, (3aS,4R,9bR)-4-(4-azidophenyl)-3a,4,5,9b-tetrahydro-3H-cyclopenta[c]quinoline-8-sulfonamide], the “Charge Alone” value is given as “Inactive” and the “Charge +C” value was “Inactive”.
For `NS(=O)(=O)c1ccc([C@H]2Nc3ccc(S(N)(=O)=O)cc3[C@H]3C=CC[C@H]32)cc1` (stereo in doubt) [Compound 28, 4-(4-sulfamoylphenyl)-3a,4,5,9b-tetrahydro-3H-cyclopenta[c]quinoline-8-sulfonamide], the “Charge +C” value turned out to be 128.
